In assay [1] the test system is T47D human breast cancer cells. Kind of assay: Alkaline phosphatase assay in human breast cancer cell line T47D. It is filed as cell-based. How it is done: Alkaline Phosphatase Assay in Human Breast Cancer Cell Line T47D
T47D human breast cancer cells were grown in RPMI medium without phenol red (Invitrogen) containing 10% (v/v) heat-inactivated fetal bovine serum (FBS; Hyclone), 1% (v/v) penicillin-streptomycin (Invitrogen), 1% (w/v) glutamine (Invitrogen), and […] insulin (Sigma). Incubation conditions were 37° C. in a humidified 5% (v/v) carbon dioxide environment.
The cells were plated in 96-well tissue culture plates at 10,000 cells per well in assay medium [RPMI medium without phenol red (Invitrogen) containing 5% (v/v) charcoal-treated FBS (Hyclone) and 1% (v/v) penicillin-streptomycin (Invitrogen)]. Two days later, the medium was decanted and test compound or control were added at a final concentration of 0.1% (v/v) dimethyl sulfoxide in fresh assay medium. Twenty-four hours later, an alkaline phosphatase assay was performed using a SEAP kit (BD Biosciences Clontech, Palo Alto, Calif.). Briefly, the medium was decanted and the cells were fixed for 30 minutes at room temperature with 5% (v/v) formalin (Sigma). The cells were washed once with room temperature Hank's buffered saline solution (Invitrogen). Equal volumes (0.05 mL) of 1× Dilution Buffer, Assay Buffer and 1:20 substrate/enhancer mixture were then added. After 1 hour incubation at room temperature in the dark, the lysate was transferred to a white 96-well plate (Dynex) and luminescence was read using a LuminoSkan Ascent (Thermo Electron, Woburn, Mass.).

The test system of assay [2] is A549 Human lung carcinoma cells. Kind of assay: Transient transfection and Steady Glo luciferase assay in A549 cells with dexamethasone challenge. It is filed as cell-based. How it is done: Transient Transfection and Steady Glo Luciferase Assay
A549 Human lung carcinoma cells were grown in F-12K Nutrient Mixture containing 10% (v/v) fetal bovine serum (FBS; Invitrogen), 2 mM glutamine and 0.15% […] (Invitrogen)
A549 cells were split 1 to 3 in 175 cm tissue culture flask. The cells were incubated at 37° C. in CO2 incubator until the cells were 95% confluent (typically 24-30 hours).
The following solutions were prepared in sterile tubes: (a) Solution A: 1.5 μg/ml of DNA in 8.5 ml OPTI-MEM I Reduced Serum Medium. (GIBCO cat# 31985) and (b) Solution B: 6 μl/ml of DMRIE-C Reagent into […] OPTI-MEM I. The two solutions were combined and mixed gently, then incubated at room temperature for 40 minutes.
The A549 cells prepared above were washed with […] of OPTI-MEM I. The medium was removed and 17 ml of the lipid-DNA complex solution was overlayed onto cells. The cells ere then incubated for 16 h at 37° C. in CO2 incubator. The DNA-containing medium was removed and 30 ml of growth medium was added. (5% Charcoal treated FBS) After 5-6 h, the cells were seeded in a 96 well plate and the cells incubated overnight at 37° C. in CO2 incubator.
To each well was then added 5 μl of test compounds and the cells incubated at 37° C. for 10 min. 5 μL of dexamathasone (CAS [50-02-2]), a glucocorticoid agonist, solution was then added to each well for challenger and the cells incubated at 37° C. in CO2 incubator for 24 h. 100 μl of Luc-assay buffer was then added into each cell well and the cells incubated for 30 min at room temperature. A 150 μL sample from each well was then transferred into a DYNEX Microlitel plate and read on Top-counter.

Setting [3] is: T47D cells, alkaline phosphatase readout, 24 h with test compound, read-out: T47D IC50.
Setting [4] is: transfected A549 cells, luciferase readout, challenged with dexamethasone (glucocorticoid agonist), 24 h, read-out: A549 IC50.
Where [5] appears, read: T47D, 24 h, read-out: T47D IC50 (nM).
Where [6] appears, read: A549, 24 h, read-out: A549 IC50 (nM).

We go through nine compounds from US7671045B2, “17-phosphorous steroid derivatives useful as progesterone receptor modulators” (Janssen Pharmaceutica N.V., priority 2006, dated 2010).

Where two headings read alike, the source gives them in different places.

As a reminder, the IC50 is the concentration needed to halve the response being measured. As to `CN(C)c1ccc([C@H]2C[C@@]3(C)[C@@H](CC[C@@]3(O)C#CP(=O)(c3ccccc3)c3ccccc3)[C@@H]3CCC4=CC(=O)CCC4=C32)cc1` [Compound 103], the IC50 is 1.57 nM in assay [1] (setting [3]) and 41.6 nM in assay [2] (setting [4]).
Regarding `CC#C[C@]1(O)CC[C@H]2[C@@H]3CCC4=CC(=O)CCC4=C3[C@@H](c3ccc(P(=O)(OCC)OCC)cc3)C[C@@]21C` [Compound 26], the IC50 came out at 125 nM in assay [1] (setting [5]) and 41.5 nM in assay [2] (setting [6]).
On to `C[C@]12C[C@H](c3ccc(P(C)(C)=O)cc3)C3=C4CCC(=O)C=C4CC[C@H]3[C@@H]1CCC2=O` [Compound 2], for which the 50% inhibitory concentration (IC50) is over 1000 nM in assay [1] (setting [3]) and over 710 nM in assay [2] (setting [4]).
For the compound `C[C@]12C[C@H](c3ccc(P(=O)(c4ccccc4)c4ccccc4)cc3)C3=C4CCC(=O)C=C4CC[C@H]3[C@@H]1CC[C@@]2(O)C#Cc1ccccc1` [Compound 30], the IC50 came to 275 nM in assay [1] (setting [3]) and 93 nM in assay [2] (setting [4]).
For the compound `CCOP(=O)(C#C[C@]1(O)CC[C@H]2[C@@H]3CCC4=CC(=O)CCC4=C3[C@@H](c3ccc(N(C)C)cc3)C[C@@]21C)OCC` [Compound 101], the IC50 in assay [1] (setting [5]) was 1.3 nM; in assay [2] (setting [6]), over 100 nM.
For `C=C1CCO[C@]12CC[C@H]1[C@@H]3CCC4=CC(=O)CCC4=C3[C@@H](c3ccc(P(=O)(c4ccc(Cl)cc4)c4ccc(Cl)cc4)cc3)C[C@@]12C` [Compound 39, 19,24-Dinorchola-4,9,20-trien-3-one, 17,23-epoxy-11-[4-[Bis-(4-chloro-phenyl)-phosphinoyl]-phenyl]-, (11β,17α)-(9Cl)], the IC50 turned out to be 20 nM in assay [1] (setting [3]) and 143 nM in assay [2] (setting [4]).
Consider `C=C(C)[C@]1(O)CC[C@H]2[C@@H]3CCC4=CC(=O)CCC4=C3[C@@H](c3ccc(P(=O)(OCC)OCC)cc3)C[C@@]21C` [Compound 11], for which the IC50 in assay [1] (setting [5]) was determined as 51.3 nM; in assay [2] (setting [6]), 66.3 nM.
As for `COP(=S)(C#C[C@]1(O)CC[C@H]2[C@@H]3CCC4=CC(=O)CCC4=C3[C@@H](c3ccc(N(C)C)cc3)C[C@@]21C)OC` [Compound 105], the IC50 in assay [1] (setting [5]) was 1.44 nM; in assay [2] (setting [6]) it was 55.8 nM.
The like results for `C/C=C/C[C@]1(O)CC[C@H]2[C@@H]3CCC4=CC(=O)CCC4=C3[C@@H](c3ccc(P(=O)(OCC)OCC)cc3)C[C@@]21C` [Compound 29] were, in that order, 160 nM and 225 nM.
